# Measured values taken from US11638713B2, “Patentiflorin A analogs as antiviral agents” (priority 2019, dated 2023).
# Like-named read-outs stand apart in the source and are kept apart here.
# Experiments:
# [1] = system: HIV; test: microbe, parasite or virus in culture; type: cell-based; settings: Human immunodeficiency virus 1, A549
# [2] = system: H5N1 virus; test: microbe, parasite or virus in culture; type: cell-based, H5N1 influenza virus; settings: for EC50: H5N1, A549, read-out: EC50 against H5N1 virus; for inhibition at 0.05 µg/mL: H5N1, A549, 50 ng/mL; for inhibition at 0.25 µg/mL: H5N1, A549, 250 ng/mL; for inhibition at 0.0125 µg/mL: H5N1, A549, 12.5 ng/mL; for inhibition at 1 µg/mL: H5N1, A549, 1000 ng/mL; for inhibition at 5 µg/mL: H5N1, A549, 5000 ng/mL; for inhibition at 0.5 µg/mL: H5N1, A549, 500 ng/mL
# [3] = system: EBOV (Ebola virus); test: microbe, parasite or virus in culture; type: cell-based; settings: Zaire ebolavirus; for EC50: A549, read-out: EC50 against EBOV; for inhibition at 0.0125 µg/mL: 12.5 ng/mL; for inhibition at 0.05 µg/mL: 50 ng/mL; for inhibition at 1 µg/mL: 1000 ng/mL; for inhibition at 5 µg/mL: 5000 ng/mL; for inhibition at 0.5 µg/mL: 500 ng/mL
# [4] = system: VSV (vesicular stomatitis virus); test: microbe, parasite or virus in culture; type: cell-based; settings: for EC50: A549, read-out: EC50 against VSV; for inhibition at 0.0125 µg/mL: A549, 12.5 ng/mL; for inhibition at 0.05 µg/mL: A549, 50 ng/mL
# [5] = in vitro; settings: human
# [6] = system: A549 cells; test: cells; settings: Homo sapiens, A549, read-out: % Inhibition against A549 cells
# [7] = system: SARS-CoV-2; test: microbe, parasite or virus in culture; type: cell-based; settings: Severe acute respiratory syndrome coronavirus 2, HepG2, read-out: EC50 against SARS-CoV-2
# [8] = CC50 against the host cell line A549
# [9] = Influenza A virus, read-out: % Inhibition against H5N1 virus
# [10] = A549, read-out: % Inhibition against EBOV
# [11] = read-out: % Inhibition against VSV
Structure (SMILES),EC50 [1],EC50 ([2]; Influenza A virus),EC50 [3],EC50 [4],CC50 ([5]; CC50 (nM)),"CC50 [5, 8]",further results
"COc1cc2c(OC3O[C@H](CO)[C@H](O)[C@H](O)[C@H]3O)c3c(c(-c4ccc5c(c4)OCO5)c2cc1OC)C(=O)OC3 (stereo partly drawn) [Compound 26g, 7-O-β-D-galactopyranosyldiphyllin]",1400 nM,63.6 nM,123 nM,210 nM,7770 nM,4130 nM,–
"C=CCOC(=O)O[C@@H]1COC(Oc2c3c(c(-c4ccc5c(c4)OCO5)c4cc(OC)c(OC)cc24)C(=O)OC3)[C@H](OC(=O)OCC=C)[C@H]1O (stereo partly drawn) [Compound 29a, 2″,4″-O-diallyl oxycarbonyl-7-O-β-D-xylosyldiphyllin]",–,5.57 nM,10.6 nM,10.6 nM,438 nM,122 nM,"inhibition at 0.05 µg/mL [2, 9]: 59.4%; inhibition at 0.25 µg/mL [2, 9]: 97.3%"
"COc1cc2c(OC3OC[C@@H](O)[C@H](OCc4ccccc4)[C@H]3O)c3c(c(-c4ccc5c(c4)OCO5)c2cc1OC)C(=O)OC3 (stereo partly drawn) [Compound 31l, 3″-O-benzyl-7-O-β-D-xylosyldiphyllin]",–,0.013 nM,0.19 nM,0.37 nM,–,4.85 nM,"% Inhibition against H5N1 virus ([2]; 12.5 ng/mL): 95.1%; % Inhibition against H5N1 virus ([2]; 50 ng/mL): 95.6%; inhibition at 0.0125 µg/mL [2, 9]: 82.8%; inhibition at 0.05 µg/mL [2, 9]: 96%; inhibition at 0.25 µg/mL [2, 9]: 96.8%; inhibition at 0.0125 µg/mL [3, 10]: 86.4%; inhibition at 0.05 µg/mL [3, 10]: 94.2%; inhibition at 0.0125 µg/mL [4, 11]: 88.7%; inhibition at 0.05 µg/mL [4, 11]: 98.4%; inhibition at 0.0125 µg/mL [6]: 52%; inhibition at 0.05 µg/mL [6]: 82.1%"
"COc1cc2c(OC3OC[C@@H](O)[C@H](OC(=O)N(C)C)[C@H]3O)c3c(c(-c4ccc5c(c4)OCO5)c2cc1OC)C(=O)OC3 (stereo partly drawn) [Compound 31a, 3″-O-dimethylcarbamyl-7-O-β-D-xylosyldiphyllin]",–,–,–,–,55.8 nM,–,"inhibition at 0.0125 µg/mL [2, 9]: 87.9%; inhibition at 0.05 µg/mL [2, 9]: 94.4%; inhibition at 0.25 µg/mL [2, 9]: 97.6%; inhibition at 1 µg/mL [2, 9]: 94.7%; inhibition at 5 µg/mL [2, 9]: 98.4%; inhibition at 1 µg/mL [3, 10]: 81.8%; inhibition at 5 µg/mL [3, 10]: 95.2%; inhibition at 1 µg/mL ([4]; A549, 1000 ng/mL, read-out: % Inhibition against VSV): 80.4%; inhibition at 5 µg/mL ([4]; A549, 5000 ng/mL, read-out: % Inhibition against VSV): 99.6%; inhibition at 1 µg/mL [6]: 47.5%; inhibition at 5 µg/mL [6]: 99.8%"
"C=CCOC(=O)O[C@@H]1COC(Oc2c3c(c(-c4ccc5c(c4)OCO5)c4cc(OC)c(OC)cc24)C(=O)OC3)[C@H](OC(=O)OCC=C)[C@H]1OC(C)=O (stereo partly drawn) [Compound 28ab3, 2″,4″-O-diallyl oxycarbonyl-3″-acetyl-7-O-β-D-xylosyldiphyllin]",22.9 nM,1.16 nM,0.98 nM,0.85 nM,386 nM,6.14 nM,–
"COc1cc2c(OC3O[C@H](C)[C@@H](O)[C@H](OC(=O)c4ccc(N(C)C)cc4)[C@H]3O)c3c(c(-c4ccc5c(c4)OCO5)c2cc1OC)C(=O)OC3 (stereo partly drawn) [Compound 31e, 3″-O-p-dimethylaminobenzoyl-7-O-β-D-patentiflorin A]",2.41 nM,0.74 nM,1.13 nM,2.41 nM,17.7 nM,17.7 nM,"% Inhibition against H5N1 virus ([2]; 12.5 ng/mL): 95.4%; % Inhibition against H5N1 virus ([2]; 50 ng/mL): 96.5%; inhibition at 0.0125 µg/mL [2, 9]: 98.1%; inhibition at 0.05 µg/mL [2, 9]: 97.9%; inhibition at 0.25 µg/mL [2, 9]: 98.4%; inhibition at 0.0125 µg/mL [3, 10]: 77.5%; inhibition at 0.05 µg/mL [3, 10]: 86.5%; inhibition at 0.0125 µg/mL [4, 11]: 77.4%; inhibition at 0.05 µg/mL [4, 11]: 86.3%; inhibition at 0.0125 µg/mL [6]: 53.1%; inhibition at 0.05 µg/mL [6]: 66.8%"
"C=CCOC(=O)O[C@@H]1COC(Oc2c3c(c(-c4ccc5c(c4)OCO5)c4cc(OC)c(OC)cc24)C(=O)OC3)[C@H](OC(=O)OCC=C)[C@H]1OC(=O)N(C)C (stereo partly drawn) [Compound 30a, 2″,4″-O-diallyl oxycarbonyl-3″-O-dimethylcarbamyl-7-O-β-D-xylosyldiphyllin]",–,3.88 nM,1.84 nM,8.6 nM,145 nM,35.2 nM,"inhibition at 0.0125 µg/mL [2, 9]: 44.1%; inhibition at 0.05 µg/mL [2, 9]: 95.7%; inhibition at 0.25 µg/mL [2, 9]: 97.6%"
"C=CCOC(=O)O[C@H]1C(Oc2c3c(c(-c4ccc5c(c4)OCO5)c4cc(OC)c(OC)cc24)C(=O)OC3)OC[C@@H](O)[C@@H]1OC(C)=O (stereo partly drawn) [Compound 28ab2, 2″-O-allyl oxycarbonyl-3″-acetyl-7-O-β-D-xylosyldiphyllin]",2.3 nM,0.23 nM,16.3 nM,4.98 nM,386 nM,108 nM,–
COc1cc2c(N=C(c3ccccc3)c3ccccc3)c3c(c(-c4ccc5c(c4)OCO5)c2cc1OC)C(=O)OC3 [Compound 19p],249 nM,–,–,–,> 9200 nM,–,"inhibition at 1 µg/mL [2, 9]: 82.1%; inhibition at 5 µg/mL [2, 9]: 96.5%; inhibition at 1 µg/mL [3, 10]: 58.1%; inhibition at 5 µg/mL [3, 10]: 89.4%; inhibition at 1 µg/mL [6]: -13%; inhibition at 5 µg/mL [6]: 17.2%"
"COc1cc2c(OC3O[C@H](CO)[C@@H](O)[C@H](O)[C@H]3O)c3c(c(-c4ccc5c(c4)OCO5)c2cc1OC)C(=O)OC3 (stereo partly drawn) [Compound 26f, 7-O-β-D-glucopyranosyldiphyllin]",–,371 nM,516 nM,1040 nM,> 9220 nM,8650 nM,"inhibition at 0.1 µg/mL ([2]; Influenza A virus, H5N1, A549, 100 ng/mL, read-out: % Inhibition against H5N1 virus): 62.4%; inhibition at 0.5 µg/mL [2, 9]: 87.2%; inhibition at 0.1 µg/mL ([3]; A549, 100 ng/mL, read-out: % Inhibition against EBOV): 82.7%; inhibition at 0.5 µg/mL [3, 10]: 89.1%; inhibition at 0.1 µg/mL ([4]; A549, 100 ng/mL, read-out: % Inhibition against VSV): 47.2%; inhibition at 0.5 µg/mL ([4]; A549, 500 ng/mL, read-out: % Inhibition against VSV): 70.8%; inhibition at 0.1 µg/mL [6]: -3.84%; inhibition at 0.5 µg/mL [6]: 18.2%"
"COc1cc2c(OC3O[C@H](C)[C@@H](O)[C@H](OC(=O)C4CC4)[C@H]3O)c3c(c(-c4ccc5c(c4)OCO5)c2cc1OC)C(=O)OC3 (stereo partly drawn) [Compound 31g, 3″-O-cyclopropanecarbonyl-7-O-4i-D-patentiflorin A]",–,–,–,–,26.7 nM,–,"% Inhibition against H5N1 virus ([2]; 50 ng/mL): 89.0%; inhibition at 0.01 µg/mL ([2]; Influenza A virus, H5N1, A549, 10 ng/mL, read-out: % Inhibition against H5N1 virus): 78.9%; inhibition at 0.0125 µg/mL [2, 9]: 97.9%; inhibition at 0.05 µg/mL [2, 9]: 97.9%; inhibition at 0.25 µg/mL [2, 9]: 98.1%; inhibition at 0.01 µg/mL ([3]; A549, 10 ng/mL, read-out: % Inhibition against EBOV): 79.1%; inhibition at 0.05 µg/mL [3, 10]: 90.9%; inhibition at 0.01 µg/mL ([4]; A549, 10 ng/mL, read-out: % Inhibition against VSV): 63.3%; inhibition at 0.05 µg/mL [4, 11]: 95.7%; inhibition at 0.01 µg/mL [6]: 11%; inhibition at 0.05 µg/mL [6]: 54.6%"
"COc1cc2c(O)c3c(c(-c4ccc5c(c4)OCO5)c2cc1OC)C(=O)OC3 [Compound 5, diphyllin]",37.1 nM,–,–,–,3610 nM,–,EC50 [7]: 150 nM
"CN(C)CCOc1ccc(/C(=C(/CCCl)c2ccccc2)c2ccccc2)cc1 [Toremifene, toremifene, reference compound]",–,–,212 nM,–,–,–,"inhibition at 0.5 µg/mL [2, 9]: 28.4%; inhibition at 0.5 µg/mL [3, 10]: 93.6%; inhibition at 0.5 µg/mL ([4]; A549, read-out: % Inhibition against VSV): 6.58%; inhibition at 0.5 µg/mL [6]: -15.1%"
COc1cc2c(OC(=O)C3CCCC3)c3c(c(-c4ccc5c(c4)OCO5)c2cc1OC)C(=O)OC3 [Compound 17f],772 nM,–,–,–,7070 nM,–,–
"COc1cc2c(OC3O[C@H](C)[C@@H](OC(C)=O)[C@H](O)[C@H]3OC(C)=O)c3c(c(-c4ccc5c(c4)OCO5)c2cc1OC)C(=O)OC3 (stereo partly drawn) [Compound 27be, 2″,4″-Diacetyl-7-O-β-D-patentiflorin A]",1.96 nM,–,–,–,1670 nM,–,–
COc1cc2c(C3=CCN(C(=O)OC(C)(C)C)CC3)c3c(c(-c4ccc5c(c4)OCO5)c2cc1OC)C(=O)OC3 [Compound 19l],75.9 nM,–,–,–,4190 nM,–,–
COc1cc2c(OS(=O)(=O)C(F)(F)F)c3c(c(-c4ccc5c(c4)OCO5)c2cc1OC)C(=O)OC3 [Compound 18],488 nM,–,–,–,1360 nM,–,–
COc1cc2c(OC(=O)c3ccc(F)cc3)c3c(c(-c4ccc5c(c4)OCO5)c2cc1OC)C(=O)OC3 [Compound 17g],79.9 nM,–,–,–,1320 nM,–,–
COc1ccc(C(=O)Oc2c3c(c(-c4ccc5c(c4)OCO5)c4cc(OC)c(OC)cc24)C(=O)OC3)cc1 [Compound 17h],96.5 nM,–,–,–,1460 nM,–,–
CNC(=O)COc1c2c(c(-c3ccc4c(c3)OCO4)c3cc(OC)c(OC)cc13)C(=O)OC2 [Compound 14b],278 nM,–,–,–,2120 nM,–,–
"COc1cc2c(OC3O[C@H](C)[C@@H](O)[C@H](OC(C)=O)[C@H]3OC(C)=O)c3c(c(-c4ccc5c(c4)OCO5)c2cc1OC)C(=O)OC3 (stereo partly drawn) [Compound 27bf, 2″,3″-Diacetyl-7-O-β-D-patentiflorin A]",1.17 nM,–,–,–,308 nM,–,–
COc1cc2c(-c3ccncc3)c3c(c(-c4ccc5c(c4)OCO5)c2cc1OC)C(=O)OC3 [Compound 19c],88.9 nM,–,–,–,1670 nM,–,–
